Active and inactive are the calls of the source. The rule behind the calls is not given here.
Experiments:
[1] = Volume of distribution at steady state in rat at 1 mg/kg, iv measured upto 24 hrs by LC-MS/MS analysis; format: ADME, organism-based; conditions: in vivo, read-out: Vdss
[2] = Volume of distribution at steady state in mouse at 1 mg/kg, iv measured upto 24 hrs by LC-MS/MS analysis; format: ADME, organism-based; conditions: in vivo, read-out: Vdss
[3] = target: Protein kinase C delta type (Homo sapiens, UniProt Q05655); test: Inhibition of PKCdelta (unknown origin)
[4] = AUCinfinity in mouse at 10 mg/kg, po measured upto 24 hrs by LC-MS/MS analysis; format: ADME, organism-based; conditions: in vivo
Mus musculus = test: In vivo inhibition of PKCdelta in mouse xenografted with human 92-1 cells assessed as reduction in phosphorylated levels at 15 to 72 mg/kg, po; format: functional, organism-based; conditions: dose lower […], dose upper […]
[5] = Clearance in mouse at 1 mg/kg, iv measured upto 24 hrs by LC-MS/MS analysis; format: ADME, organism-based; conditions: in vivo
[6] = AUCinfinity in rat at 3 mg/kg, po measured upto 24 hrs by LC-MS/MS analysis; format: ADME, organism-based; conditions: in vivo
cells = conditions: Homo sapiens, 92-1, 72 h
[7] = AUCinfinity in rat at 1 mg/kg, iv measured upto 24 hrs by LC-MS/MS analysis; format: ADME, organism-based; conditions: in vivo
92-1 [8] = test: Antitumor activity against human 92-1 cells xenografted in po dosed mouse assessed as tumor suppression administered twice daily; format: functional, organism-based; conditions: dose lower […], dose upper 75.0 mg/kg
[9] = target: Protein kinase C gamma type (Homo sapiens, UniProt P05129); test: Inhibition of PKCgamma (unknown origin)
[10] = Clearance in rat at 1 mg/kg, iv measured upto 24 hrs by LC-MS/MS analysis; format: ADME, organism-based; conditions: in vivo
[11] = Clearance in dog at 0.3 mg/kg, iv measured upto 24 hrs by LC-MS/MS analysis; format: ADME, organism-based, Canis lupus familiaris; conditions: in vivo
[12] = Oral bioavailability in dog at 3 mg/kg measured upto 24 hrs by LC-MS/MS analysis; format: ADME, organism-based, Canis lupus familiaris; conditions: in vivo
SK-MEL-28 = test: cells; conditions: Homo sapiens
[13] = Cmax in rat at 3 mg/kg, po measured upto 24 hrs by LC-MS/MS analysis; format: ADME, organism-based; conditions: in vivo
[14] = Toxicity in mouse xenografted with human 92-1 cells assessed as body weight loss at 75 to 150 mg/kg, po bid; format: organism-based; conditions: in vivo, dose 75-150 mg/kg
[15] = target: 5-hydroxytryptamine receptor 2B (Homo sapiens, UniProt P41595); test: Agonist activity at 5HT2B (unknown origin); format: toxicity
[16] = Half-life in rat at 1 mg/kg, iv measured upto 24 hrs by LC-MS/MS analysis; format: ADME, organism-based; conditions: in vivo
[17] = target: Protein kinase C eta type (Homo sapiens, UniProt P24723); test: Inhibition of PKCeta (unknown origin)
[18] = Toxicity in mouse xenografted with human 92-1 cells assessed as body weight loss at 15 to 150 mg/kg, po bid; format: organism-based; conditions: in vivo, dose 15-150 mg/kg
[19] = Tmax in dog at 3 mg/kg, po measured upto 24 hrs by LC-MS/MS analysis; format: ADME, organism-based, Canis lupus familiaris; conditions: in vivo
[20] = Oral bioavailability in mouse at 10 mg/kg measured upto 24 hrs by LC-MS/MS analysis; format: ADME, organism-based; conditions: in vivo
[21] = Tmax in mouse at 10 mg/kg, po measured upto 24 hrs by LC-MS/MS analysis; format: ADME, organism-based; conditions: in vivo
92-1 [22] = test: Antitumor activity against human 92-1 cells xenografted in mouse assessed as tumor suppression at 75 to 150 mg/kg, po administered twice daily; format: functional, organism-based; conditions: dose lower 75.0 mg/kg, dose upper […]
[23] = Dissociation constant, pKa of compound; format: physicochemical
[24] = AUCinfinity in dog at 0.3 mg/kg, iv measured upto 24 hrs by LC-MS/MS analysis; format: ADME, organism-based, Canis lupus familiaris; conditions: in vivo
[25] = target: T1, Protein kinase C beta type (Homo sapiens, UniProt P05771); test: Inhibition of PKCbeta1 (unknown origin)
[26] = Tmax in rat at 3 mg/kg, po measured upto 24 hrs by LC-MS/MS analysis; format: ADME, organism-based; conditions: in vivo
[27] = AUCinfinity in mouse at 1 mg/kg, iv measured upto 24 hrs by LC-MS/MS analysis; format: ADME, organism-based; conditions: in vivo
[28] = Oral bioavailability in rat at 3 mg/kg measured upto 24 hrs by LC-MS/MS analysis; format: ADME, organism-based; conditions: in vivo
[29] = AUCinfinity in dog at 3 mg/kg, po measured upto 24 hrs by LC-MS/MS analysis; format: ADME, organism-based, Canis lupus familiaris; conditions: in vivo
[30] = target: T2, Protein kinase C epsilon type (Homo sapiens, UniProt Q02156); test: Inhibition of PKCepsilon (unknown origin)
T2 sequence (Q02156 whole entry): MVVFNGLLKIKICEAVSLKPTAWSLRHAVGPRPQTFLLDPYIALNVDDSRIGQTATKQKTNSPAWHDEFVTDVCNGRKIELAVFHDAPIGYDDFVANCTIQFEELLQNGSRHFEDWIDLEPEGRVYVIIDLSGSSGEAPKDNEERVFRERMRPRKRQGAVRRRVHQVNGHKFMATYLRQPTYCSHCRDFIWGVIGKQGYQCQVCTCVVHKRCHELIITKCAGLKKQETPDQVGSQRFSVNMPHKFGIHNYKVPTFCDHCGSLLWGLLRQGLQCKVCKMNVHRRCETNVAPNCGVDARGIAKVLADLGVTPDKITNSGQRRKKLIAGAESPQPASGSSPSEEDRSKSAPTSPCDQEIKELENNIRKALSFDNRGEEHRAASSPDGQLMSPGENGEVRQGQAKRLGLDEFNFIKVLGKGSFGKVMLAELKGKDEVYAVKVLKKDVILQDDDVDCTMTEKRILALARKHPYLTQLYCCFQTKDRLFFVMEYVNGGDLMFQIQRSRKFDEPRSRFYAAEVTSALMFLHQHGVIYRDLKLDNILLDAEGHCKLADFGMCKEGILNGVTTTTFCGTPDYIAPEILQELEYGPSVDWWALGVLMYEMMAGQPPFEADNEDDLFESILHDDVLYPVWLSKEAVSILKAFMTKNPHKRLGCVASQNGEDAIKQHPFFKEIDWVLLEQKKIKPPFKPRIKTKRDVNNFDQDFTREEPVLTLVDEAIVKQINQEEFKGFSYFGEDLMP

[31] = target: T1, Protein kinase C beta type; test: Inhibition of PKCbeta2 (unknown origin)
92-1 [32] = test: Antitumor activity against human 92-1 cells xenografted in mouse assessed as tumor suppression at 75 mg/kg, po administered twice daily measured after compound withdrawal; format: functional, organism-based
[33] = Half-life in dog at 0.3 mg/kg, iv measured upto 24 hrs by LC-MS/MS analysis; format: ADME, organism-based, Canis lupus familiaris; conditions: in vivo
[34] = Cmax in dog at 3 mg/kg, po measured upto 24 hrs by LC-MS/MS analysis; format: ADME, organism-based, Canis lupus familiaris; conditions: in vivo
[35] = Cmax in mouse at 10 mg/kg, po measured upto 24 hrs by LC-MS/MS analysis; format: ADME, organism-based; conditions: in vivo
[36] = Half life in mouse at 1 mg/kg, iv measured upto 24 hrs by LC-MS/MS analysis; format: ADME, organism-based; conditions: in vivo
[37] = Volume of distribution at steady state in dog at 0.3 mg/kg, iv measured upto 24 hrs by LC-MS/MS analysis; format: ADME, organism-based, Canis lupus familiaris; conditions: in vivo, read-out: Vdss

T1 sequence (P05771 whole entry): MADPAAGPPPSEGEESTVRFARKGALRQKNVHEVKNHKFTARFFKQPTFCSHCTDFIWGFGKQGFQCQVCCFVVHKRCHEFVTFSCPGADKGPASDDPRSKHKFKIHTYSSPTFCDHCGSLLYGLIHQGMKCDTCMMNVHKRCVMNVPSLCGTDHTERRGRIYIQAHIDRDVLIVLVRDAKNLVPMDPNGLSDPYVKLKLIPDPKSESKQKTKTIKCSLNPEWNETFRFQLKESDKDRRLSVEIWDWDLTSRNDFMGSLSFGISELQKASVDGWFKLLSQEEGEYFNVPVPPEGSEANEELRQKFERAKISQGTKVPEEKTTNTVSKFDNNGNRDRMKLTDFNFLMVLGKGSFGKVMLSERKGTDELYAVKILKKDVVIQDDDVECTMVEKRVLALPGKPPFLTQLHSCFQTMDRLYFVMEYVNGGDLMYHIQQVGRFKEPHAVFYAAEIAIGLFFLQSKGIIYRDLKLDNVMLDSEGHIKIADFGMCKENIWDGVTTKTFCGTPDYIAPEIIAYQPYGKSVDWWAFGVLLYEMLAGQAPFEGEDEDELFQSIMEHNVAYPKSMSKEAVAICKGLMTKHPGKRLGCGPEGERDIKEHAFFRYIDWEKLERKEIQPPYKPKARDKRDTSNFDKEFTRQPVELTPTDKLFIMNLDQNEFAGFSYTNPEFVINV
Protein kinase C eta type, sequence (P24723 whole entry): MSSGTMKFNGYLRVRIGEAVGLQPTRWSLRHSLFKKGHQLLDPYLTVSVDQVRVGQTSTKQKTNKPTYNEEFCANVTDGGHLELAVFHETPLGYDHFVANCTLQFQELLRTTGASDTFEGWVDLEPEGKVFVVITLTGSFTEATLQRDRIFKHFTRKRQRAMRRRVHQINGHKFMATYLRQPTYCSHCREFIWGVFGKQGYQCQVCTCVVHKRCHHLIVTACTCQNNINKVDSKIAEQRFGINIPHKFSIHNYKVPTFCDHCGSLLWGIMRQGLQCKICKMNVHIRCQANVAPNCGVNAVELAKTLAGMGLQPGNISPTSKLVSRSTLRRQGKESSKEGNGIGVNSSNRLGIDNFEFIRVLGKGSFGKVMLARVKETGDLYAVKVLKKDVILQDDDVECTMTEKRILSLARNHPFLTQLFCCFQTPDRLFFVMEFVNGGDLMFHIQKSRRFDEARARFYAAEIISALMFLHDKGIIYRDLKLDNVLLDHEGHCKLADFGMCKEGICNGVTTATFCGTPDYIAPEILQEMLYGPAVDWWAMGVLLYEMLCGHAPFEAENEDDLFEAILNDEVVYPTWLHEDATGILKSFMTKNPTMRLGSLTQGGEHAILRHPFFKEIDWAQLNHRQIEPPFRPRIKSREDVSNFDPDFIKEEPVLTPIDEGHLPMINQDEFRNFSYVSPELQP
Protein kinase C delta type, sequence (Q05655 whole entry): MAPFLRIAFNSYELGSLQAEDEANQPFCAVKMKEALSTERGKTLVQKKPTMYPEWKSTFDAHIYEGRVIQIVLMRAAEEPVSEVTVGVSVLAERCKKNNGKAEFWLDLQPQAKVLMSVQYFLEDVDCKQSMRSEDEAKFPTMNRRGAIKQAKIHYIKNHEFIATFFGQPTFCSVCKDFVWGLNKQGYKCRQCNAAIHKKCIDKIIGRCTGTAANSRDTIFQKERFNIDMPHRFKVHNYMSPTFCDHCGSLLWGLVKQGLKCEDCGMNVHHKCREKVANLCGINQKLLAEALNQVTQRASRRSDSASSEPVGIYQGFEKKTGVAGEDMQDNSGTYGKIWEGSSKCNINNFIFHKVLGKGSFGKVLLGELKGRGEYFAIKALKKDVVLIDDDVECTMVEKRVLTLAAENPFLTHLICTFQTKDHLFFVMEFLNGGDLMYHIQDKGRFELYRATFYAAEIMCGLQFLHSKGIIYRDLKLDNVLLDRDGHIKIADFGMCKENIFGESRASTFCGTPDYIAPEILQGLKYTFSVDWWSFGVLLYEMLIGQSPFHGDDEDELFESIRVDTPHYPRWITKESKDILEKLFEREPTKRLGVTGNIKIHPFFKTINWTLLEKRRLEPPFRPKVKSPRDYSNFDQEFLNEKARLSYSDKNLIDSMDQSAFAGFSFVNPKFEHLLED
5-hydroxytryptamine receptor 2B, sequence (P41595 whole entry): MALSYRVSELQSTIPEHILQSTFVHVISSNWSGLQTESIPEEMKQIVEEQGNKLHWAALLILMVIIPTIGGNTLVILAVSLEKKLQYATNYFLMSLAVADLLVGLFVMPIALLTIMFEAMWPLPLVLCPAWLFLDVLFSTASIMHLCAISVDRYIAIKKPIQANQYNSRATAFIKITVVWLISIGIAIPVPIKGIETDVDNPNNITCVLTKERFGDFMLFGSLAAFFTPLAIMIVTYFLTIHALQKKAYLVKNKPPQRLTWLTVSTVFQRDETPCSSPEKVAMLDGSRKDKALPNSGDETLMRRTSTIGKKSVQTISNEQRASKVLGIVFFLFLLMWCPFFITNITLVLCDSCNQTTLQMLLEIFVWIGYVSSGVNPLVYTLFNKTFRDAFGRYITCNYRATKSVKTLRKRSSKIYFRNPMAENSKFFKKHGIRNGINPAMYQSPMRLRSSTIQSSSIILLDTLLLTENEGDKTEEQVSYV

Question: Which Vd [1] does the source give for CC1(N)CCN(c2cccnc2NC(=O)c2nc(-c3ncccc3C(F)(F)F)cnc2N)CC1 [DAROVASERTIB] here?
Answer: 3.4 L/kg

Question: What about the Vd [2] of the same molecule?
Answer: 1.6 L/kg

Question: What about the IC50 [3] of the same molecule?
Answer: 6.9 nM

Question: What about the AUC(0-inf) [4] of the same molecule?
Answer: 2.17 µM·h

Question: What about the Activity (Mus musculus) of the same molecule?
Answer: Active

Question: What about the clearance [5] of the same molecule?
Answer: 26 mL/min/kg

Question: And the AUC(0-inf) [6]?
Answer: 2.39 µM·h

Question: What about the EC50 (cells) of the same molecule?
Answer: 170 nM

Question: And the AUC(0-inf) [7]?
Answer: 1.45 µM·h

Question: What about the Activity (92-1 [8]) of the same molecule?
Answer: Dose-Dependent Effect

Question: What about the IC50 [9] of the same molecule?
Answer: 109 nM

Question: And the clearance [10]?
Answer: 24 mL/min/kg

Question: What about the clearance [11] of the same molecule?
Answer: 5 mL/min/kg

Question: What about the bioavailability [12] of the same molecule?
Answer: 76%

Question: What about the IC50 (SK-MEL-28) of the same molecule?
Answer: > 10000 nM

Question: What about the Cmax [13] of the same molecule?
Answer: 509 nM

Question: What about the Activity [14] of the same molecule?
Answer: Non-Toxic

Question: What about the EC50 [15] of the same molecule?
Answer: > 30000 nM

Question: And the half-life [16]?
Answer: 5.7 h

Question: And the IC50 [17]?
Answer: 13.3 nM

Question: And the Activity [18]?
Answer: Non-Toxic

Question: And the Tmax [19]?
Answer: 0.5 h

Question: What about the bioavailability [20] of the same molecule?
Answer: 17%

Question: What about the Tmax [21] of the same molecule?
Answer: 2 h

Question: What about the Activity (92-1 [22]) of the same molecule?
Answer: Active

Question: What about the pKa [23] of the same molecule?
Answer: 9

Question: And the AUC(0-inf) [24]?
Answer: 2.59 µM·h

Question: What about the IC50 [25] of the same molecule?
Answer: 66 nM

Question: What about the Tmax [26] of the same molecule?
Answer: 0.3 h

Question: And the AUC(0-inf) [27]?
Answer: 1.36 µM·h

Question: And the bioavailability [28]?
Answer: 55%

Question: And the AUC(0-inf) [29]?
Answer: 21.4 µM·h

Question: What about the IC50 [30] of the same molecule?
Answer: 2.9 nM

Question: And the IC50 [31]?
Answer: 58 nM

Question: What about the Activity (92-1 [32]) of the same molecule?
Answer: inactive

Question: And the half-life [33]?
Answer: 4.4 h

Question: And the Cmax [34]?
Answer: 6120 nM

Question: And the Cmax [35]?
Answer: 667 nM

Question: And the half-life [36]?
Answer: 1.1 h

Question: What about the Vd [37] of the same molecule?
Answer: 1.4 L/kg
